Experimental data: patent US20190375778A1, “ADENOSINE DERIVATIVES FOR USE IN THE TREATMENT OF CANCER” (NuCana plc, priority 2016, published 2019)

What was measured:
A549 = assay: MTT cytotoxicity assay, A549; assay type: cell-based; conditions: Homo sapiens, 96 h compound exposure, read-out: absolute IC50, A549
Excerpt: (§1) Lovo: cell line derived from a metastatic site in a patient with colon cancer MCF7: human oestrogen sensitive mammary epithelial cell line PC3: human prostate cancer cell line A549: cancerous lung tissue derived cells L1210: lymphoblast cell line derived from a mouse with lymphocytic leukaemia FM3A: mammary carcinoma murine cells CEM: human T-lymphoblasts, derived from the blood of a patient with acute lymphoblastic leukaemia HeLa: epithelial cells from a patient with cervical adenocarcinoma
(§2) Anti-tumour evaluation in MCF7, LoVo, A549 and PC3 cell lines was performed by MTT assay. Compounds were prepared as 0.1-100 mM stock solutions dissolved in DMSO and stored at −20° C. Cells were seeded into 96-well microtitre plates at a density of 5×10^3 cells per well and allowed 24 hours to adhere. Decimal compound dilutions were prepared in medium immediately prior to each assay (final concentration 0.1-100 μM). Experimental medium was DMEM+10% FCS (PC3 and Lovo) or RPMI+10% heat inactivated FCS (A549 and MCF7). Following 96 h compound exposure at 37° C., 5% CO2, MTT reagent (Sigma Aldrich) was added to each well (final concentration 0.5 mg/ml). Incubation at 37° C. for 4 h allowed reduction of MTT by viable cells to an insoluble formazan product. MTT was removed and formazan solubilised by addition of 10% Triton X-100 in PBS. Absorbance was read on a Tecan Sunrise spectrophotometer at 540 nm as a measure of cell viability; thus inhibition relative to control was determined (IC50).

KG1a cell line = assay: Annexin V/propidium iodide cytotoxicity, KG1a unsorted; assay type: cell-based; conditions: for LD50: Homo sapiens, KG-1a, Annexin V/propidium iodide, 72 hrs; for cytotoxic potency compared in words: KG1a, versus 8-chloroadenosine or other isomers (FIG. 1, FIG. 7)
Experimental: A further comparative analysis of the toxicity of compounds in the KG1a cell line over an extended dose range was carried out, and the relative effect assessed of the compounds on the leukaemic stem cell compartment within the KG1a cell line, across the entire dose range. Thus, experimental tests were performed on certain compounds of the present invention to assess their ability to target cancer stem cells in a leukaemic cell line. The acute myeloid leukaemia (AML) cell line, KG1a, was employed to assess the relative effect of compounds on the stem cell compartment. The KG1a cell line was selected because it manifests a minor stem cell-like compartment with a distinct immunophenotype (Lin^−/CD34^+/CD38^−/CD123^+).
Cells of the KG1a cell line were maintained in RPMI medium (Invitrogen, Paisley, UK) supplemented with 100 units/ml penicillin, 100 μg/ml streptomycin and 20% foetal calf serum. Cells were subsequently aliquoted (10^5 cells/100 μl) into 96-well plates and were incubated at 37° C. in a humidified 5% carbon dioxide atmosphere for 72 hrs in the presence of nucleoside analogues and their respective nucleotide analogues (known as ProTides) at concentrations that were experimentally determined for each series of compounds. In addition, control cultures were carried out to which no drug was added. Cells were subsequently harvested by centrifugation and were analyzed by flow cytometry using the Annexin V assay.
Cultured cells were harvested by centrifugation and then resuspended in 195 μl of calcium-rich buffer. Subsequently, 5 μl of Annexin V (Caltag Medsystems, Botolph Claydon, UK) was added to the cell suspension and cells were incubated in the dark for 10 mins prior to washing. Cells were finally resuspended in 190 μl of calcium-rich buffer together with 10 μl of propidium iodide. Apoptosis was assessed by dual-colour immunofluorescent flow cytometry as described previously. Subsequently LD50 values (the dose required to kill 50% of the cells in a culture) were calculated for each nucleoside analogue and ProTide.
The data obtained in these experiments were evaluated using one way ANOVA. All data was confirmed as Gaussian or a Gaussian approximation using the omnibus K2 test. LD50 values were calculated from the non-linear regression and line of best-fit analysis of the sigmoidal dose-response curves. All statistical analyses were performed using Graphpad Prism 6.0 software (Graphpad Software Inc., San Diego, Calif.).

Lovo = assay: MTT cytotoxicity assay, Lovo; assay type: cell-based; conditions: Homo sapiens, 96 h compound exposure, read-out: absolute IC50, Lovo
Excerpt: as §1, §2

PC3 = assay: MTT cytotoxicity assay, PC3; assay type: cell-based; conditions: Homo sapiens, PC-3, 96 h compound exposure, read-out: absolute IC50, PC3
Excerpt: as §1, §2

MCF7 = assay: MTT cytotoxicity assay, MCF7; assay type: cell-based; conditions: Homo sapiens, 96 h compound exposure, read-out: absolute IC50, MCF7
Excerpt: as §1, §2

[1] = Drug stability in human plasma with or without EHNA; assay type: in vitro ADME; conditions: for plasma concentration compared with the other compounds: human plasma, with or without EHNA
Experimental: 10 ml of human plasma sample (Sera laboratories, UK) was treated with 1 μM of EHNA. 1 ml from this was taken along with 1 μl of 20 µM concentration of each drug (8-Cl-A, compound A, compound B and compound D) which was added to new tubes and incubated for 2 hours at 37° C. with 5% CO2. After incubation, 100 μl of each sample was taken and 300 μl of 100% methanol was added and left on ice for 30 minutes. After 30 minutes, the mixture was centrifuged (14000 rpm, 4° C., 10 minutes), the supernatant was transferred to new tubes and evaporated under speed vac. Then the dried pellet was reconstituted in 100 μl of 10% Acetonitrile and transferred to LC-MS vials for injection in to the UPLC-MS/MS system.
The dose-response curves of cytotoxicity of the drugs was determined using non-linear regression analysis of percentage cell viability versus concentration and EC50 values were obtained. The intracellular assay was conducted in five repeats for each condition. Intracellular assay was determined using paired T test (two-tailed) analysis of 8-ChloroATP/ATP concentration and p values were obtained. Drug stability in human plasma was determined using two-way ANOVA analysis. For all the analysis, Prism Software program (GraphPad Software) was used.

| SMILES | IC50 (A549) | LD50 (KG1a cell line) | IC50 (Lovo) | IC50 (PC3) | IC50 (MCF7) | plasma concentration compared with the other compounds [1] | fold increase in human plasma concentration when adenosine deaminase was inhibited by EHNA ([1]; EHNA versus control) | cytotoxic potency compared in words (KG1a cell line) |
| --- | --- | --- | --- | --- | --- | --- | --- | --- |
| C[C@H](NP(=O)(OC[C@H]1O[C@@H](n2c(Cl)nc3c(N)ncnc32)[C@H](O)[C@@H]1O)Oc1ccccc1)C(=O)OCc1ccccc1 (mixture of isomers) [C, (2S)-Benzyl 2-(((((2R,3S,4R,5R)-5-(6-amino-8-chloro-9H-purin-9-yl)-3,4-dihydroxy-tetrahydrofuran-2-yl)methoxy)(phenoxy)phosphoryl)amino)propanoate] | 15 to 100 µM | 1.6 µM | 0.1 to 5 µM | 0.1 to 5 µM | 15 to 100 µM |  |  |  |
| Nc1ncnc2c1nc(Cl)n2[C@@H]1O[C@H](COP(=O)(NCC(=O)OC2CCCCC2)Oc2ccccc2)[C@@H](O)[C@H]1O (mixture of isomers) [Compound A, Cyclohexyl 2-(((((2R,3S,4R,5R)-5-(6-amino-8-chloro-9H-purin-9-yl)-3,4-dihydroxy-tetrahydrofuran-2-yl)methoxy)(phenoxy)phosphoryl)amino)acetate] | 15 to 100 µM |  | 0.1 to 5 µM | 15 to 100 µM | 15 to 100 µM |  |  |  |
| Nc1ncnc2c1nc(Cl)n2[C@@H]1O[C@H](COP(=O)(NCC(=O)OCc2ccccc2)Oc2ccccc2)[C@@H](O)[C@H]1O (mixture of isomers) [Compound B, Benzyl 2-(((((2R,3S,4R,5R)-5-(6-amino-8-chloro-9H-purin-9-yl)-3,4-dihydroxytetra-hydrofuran-2-yl)methoxy)(phenoxy)phosphoryl)amino)acetate] | 5 to 15 µM | 7.1 µM | 0.1 to 5 µM | 0.1 to 5 µM | 15 to 100 µM | low plasma concentration |  |  |
| Nc1ncnc2c1nc(Cl)n2[C@@H]1O[C@H](CO)[C@@H](O)[C@H]1O [8-chloroadenosine, 8-Chloroadenosine, reference compound] | 0.1 to 5 µM |  | 0.1 to 5 µM | 0.1 to 5 µM | 0.1 to 5 µM |  | ~3 fold |  |
| Nc1ncnc2c1nc(Cl)n2[C@@H]1O[C@H](COP(=O)(NCC(=O)OCc2ccccc2)NCC(=O)OCc2ccccc2)C(O)C1O (stereo partly drawn) [Compound AC, 8-Chloroadenosine 5′-O-bis(benzyloxy-glycin-N-yl) phosphate] |  |  |  |  |  |  |  | not as cytotoxic as Isomer A of Compound B |
| C[C@H](NP(=O)(OC[C@H]1O[C@@H](n2c(Cl)nc3c(N)ncnc32)C(O)C1O)Oc1cccc2ccccc12)C(=O)OCc1ccccc1 (stereo partly drawn) [Compound D, (2S)-Benzyl 2-(((((2R,3S,4R,5R)-5-(6-amino-8-chloro-9H-purin-9-yl)-3,4-dihydroxy-tetrahydrofuran-2-yl)methoxynaphthalene-1-yloxy)phosphoryl)amino)propanoate] |  | 3.8 µM |  |  |  | highest plasma concentration |  | significantly (P<0.0001) more cytotoxic |
| CCCCCOC(=O)[C@H](C)NP(=O)(OC[C@H]1O[C@@H](n2c(Cl)nc3c(N)ncnc32)C(O)C1O)Oc1cccc2ccccc12 (stereo partly drawn) [Compound E, (2S)-Pentyl 2-(((((2R,3S,4R,5R)-5-(6-amino-8-chloro-9H-purin-9-yl)-3,4-dihydroxy-tetrahydrofuran-2-yl)methoxnaphthalene-1-yloxy)phosphoryl)amino)propanoate] |  | 20 µM |  |  |  |  |  | less potent than 8-chloroadenosine |
| CC(C)C[C@H](NP(=O)(OC[C@H]1O[C@@H](n2c(Cl)nc3c(N)ncnc32)C(O)C1O)Oc1ccccc1)C(=O)OCc1ccccc1 (stereo partly drawn) [V, 5′-([(Benzyloxy-L-leucin-N-yl)-phenyl]-phosphatyl) 8-chloroadenosine] | 0.1 to 5 µM |  | 0.1 to 5 µM | 0.1 to 5 µM | 0.1 to 5 µM |  |  |  |
